Results published in patent publication US9321737B2, “CDK8-CDK19 selective inhibitors and their use in anti-metastatic and chemopreventative methods for cancer” (SENEX BIOTECHNOLOGY INC, priority 2012, dated 2016).

Columns and labels:
[1] = Pharmacokinetics in mouse plasma (gavage); type: in vivo; conditions: mice, gavage 100 mg/kg
MDA-MB-468 = MDA-MB-468 TNBC xenograft model; type: in vivo, female nude mice; conditions: 40 mg/kg Senexin B daily i.p.; 4 mg/kg doxorubicin two injections two weeks apart
Protocol: Female nude mice were inoculated with MDA-MB-468 cells, and once palpable tumors were formed, mice were randomized into 4 groups, treated daily i.p. with vehicle alone (n=12), 40 mg/kg Senexin B, two injections with 4 mg/kg doxorubicin two weeks apart, or doxorubicin combined with Senexin B (n=8 in each of the latter groups).

CDK8 [2] = biological target: T1, CDK8 (Homo sapiens, UniProt P49336); test: Kd determination, CDK8; type: binding; conditions: in duplicate
T1 sequence (P49336 whole entry): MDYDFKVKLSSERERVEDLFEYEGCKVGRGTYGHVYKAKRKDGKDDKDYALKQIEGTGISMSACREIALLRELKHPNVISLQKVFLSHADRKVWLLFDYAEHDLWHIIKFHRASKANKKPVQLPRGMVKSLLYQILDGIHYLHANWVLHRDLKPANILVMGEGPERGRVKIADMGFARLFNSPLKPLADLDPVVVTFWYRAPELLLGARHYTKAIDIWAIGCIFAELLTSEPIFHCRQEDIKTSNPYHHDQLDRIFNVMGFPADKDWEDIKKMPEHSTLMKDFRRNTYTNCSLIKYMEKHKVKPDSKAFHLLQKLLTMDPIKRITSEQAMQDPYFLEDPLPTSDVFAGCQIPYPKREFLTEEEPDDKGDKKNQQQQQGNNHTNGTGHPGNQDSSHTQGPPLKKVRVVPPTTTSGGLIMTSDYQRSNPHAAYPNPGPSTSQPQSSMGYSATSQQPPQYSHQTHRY
Description: (§1) (16) The results of this analysis are presented in FIGS. 6A-B in the form of an evolutionary dendrogram of the kinase family, where kinase inhibition is represented by red circles, the size of which represents the magnitude of the inhibition.

[3] = Solubility in 20% propylene glycol; type: physicochemical
Protocol: (§2) The compounds were also tested for solubility in 20% propylene glycol and in water, as follows. Compounds (dry powder) were dissolved in 20% propylene glycol at a concentration of 1 mM at a temperature of 40° C. with occasional vortexing. After 30 min, the solution was centrifuged at 10,000×g for 5 min. Serial dilutions of the cleared supernatant were prepared and used to measure the compound concentrations through OD reading, relative to 1 μM standard solution of the same compound. The results of the measurement were expressed as % solubility of the compound at 1 mM in 20% propylene glycol. To determine water solubility, the compounds (dry powder) were initially dissolved in water at a concentration of 100 mM at a temperature of 40° C. with occasional vortexing. After 30 min, the solution was centrifuged at 10,000×g for 5 min, and the formation of an insoluble pellet was monitored. At subsequent steps, the compound was attempted to be dissolved at lower concentrations, until no pellet was observed after centrifugation, indicating complete solution of the compound.

[4] = 12-day animal toxicity study; type: in vivo, Balb/c mice; conditions: 40 mg/kg i.p.
Water solubility = type: physicochemical; conditions: 40° C., 30 min, no pellet after centrifugation
Protocol: as §2

MAP4K2 = biological target: T2, MAP4K2 (Homo sapiens, UniProt Q12851); test: KinomeScan ATP pocket binding inhibition, MAP4K2; conditions: 2,000 nM
T2 construct: purchased KinomeScan, a division of Ambit Biosciences
T2 sequence (Q12851 1-820): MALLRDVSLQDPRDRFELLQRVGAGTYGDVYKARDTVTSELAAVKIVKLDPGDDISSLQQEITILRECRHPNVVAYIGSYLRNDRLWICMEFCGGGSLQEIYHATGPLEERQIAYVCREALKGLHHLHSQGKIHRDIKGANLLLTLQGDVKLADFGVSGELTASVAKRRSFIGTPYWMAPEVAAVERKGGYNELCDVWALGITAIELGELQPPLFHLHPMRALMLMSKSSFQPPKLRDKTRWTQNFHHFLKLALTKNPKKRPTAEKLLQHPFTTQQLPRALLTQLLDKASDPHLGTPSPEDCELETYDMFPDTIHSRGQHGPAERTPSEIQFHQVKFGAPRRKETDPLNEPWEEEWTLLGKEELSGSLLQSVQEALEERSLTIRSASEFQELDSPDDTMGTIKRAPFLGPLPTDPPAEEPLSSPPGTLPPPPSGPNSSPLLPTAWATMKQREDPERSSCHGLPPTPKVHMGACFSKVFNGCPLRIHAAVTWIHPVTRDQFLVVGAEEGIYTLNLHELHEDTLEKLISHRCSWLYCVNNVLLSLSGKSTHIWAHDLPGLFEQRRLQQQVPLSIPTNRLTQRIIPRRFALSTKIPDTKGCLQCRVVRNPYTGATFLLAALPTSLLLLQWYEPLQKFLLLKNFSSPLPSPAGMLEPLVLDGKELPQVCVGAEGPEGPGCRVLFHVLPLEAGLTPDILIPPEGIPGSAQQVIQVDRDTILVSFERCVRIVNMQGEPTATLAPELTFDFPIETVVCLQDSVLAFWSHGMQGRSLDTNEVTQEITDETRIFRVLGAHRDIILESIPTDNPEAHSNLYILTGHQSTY
Description: as §1

CDK8 [5] = biological target: T1, CDK8; test: KinomeScan ATP pocket binding inhibition, CDK8; conditions: 2,000 nM
Description: as §1

[6] = test system: MDA-MB-468 triple-negative breast cancer (TNBC) cells; test: Pretreatment and treatment, MDA-MB-468 orthotopic engraftment; type: in vivo, female nude mice
Protocol: Next we tested the effect of 5-day pretreatment with 25 mg/kg daily doses of Senexin B (i.p.) on the engraftment of MDA-MB-468 triple-negative breast cancer (TNBC) cells, injected orthotopically in the fat pad of 6-8 week old female nude mice (4 per group), following the last Senexin B treatment. The appearance of palpable tumors was scored every day. […] In the experiment shown in FIG. 9B, mice were treated (daily i.p. injections with 40 mg/kg Senexin B) both before MDA-MB-468 injection (for three days) and after the injection.

[7] = test system: β-catenin-dependent TOPFLASH promoter in HCT116 colon carcinoma cells; test: β-catenin-dependent TOPFLASH luciferase assay; type: cell-based; conditions: different concentrations
Protocol: The effect of different concentrations of Senexin B on luciferase expression from β-catenin-dependent TOPFLASH promoter in HCT116 colon carcinoma cells was measured as described in US Patent Publication 20120071477 for Senexin A (SNX2-1-53).

[8] = test system: CDKI pathway (CMV promoter stimulation by p21) in HT1080 fibrosarcoma cells; test: CDKI pathway inhibition cellular assay (CMV-GFP induction by IPTG-inducible p21); type: cell-based, human; conditions: for activity in cell-based CDKI pathway assay: CMV-GFP
Protocol: The compounds described below are shown in Table 1 and the structures of some novel compounds according to the invention are shown in FIG. 1. […] All the compounds were tested for the ability to inhibit the CDKI pathway in a cellular assay described in our previous patent application PCT/US06/01046. This assay is based on the induction of green fluorescent protein (GFP) expression from the cytomegalovirus (CMV) promoter in human HT1080 fibrosarcoma cells that express CDKI p21 from an isopropyl-β-thio-galactoside (IPTG)-inducible promoter. The compound activity as a CDKI pathway inhibitor is measured by its ability to prevent the stimulation of the CMV promoter upon the addition of p21-inducing IPTG. CMV promoter activity is measured by the ratio of GFP fluorescence to the relative cell number, as determined by staining cellular DNA with Hoechst 33342.

SMILES: CN1CCN(C(=O)c2ccc3cc(CCNc4ncnc5ccc(C#N)cc45)ccc3c2)CC1 [SNX2-1-165]
- oral availability [1]: orally available
- peak plasma concentrations [1]: ~50 µM
- tumor growth (tumor volumes after 30 days of treatment) (MDA-MB-468): significantly slowed down the tumor growth
- Kd (CDK8 [2]): 140 nM
- % solubility at 1 mM in 20% propylene glycol ([3]; 1 mM, 40° C., 30 min, centrifuged, OD reading): 100%
- solubility in 20% propylene glycol ([3]; at 1 mM): fully soluble
- body weight gains at end of study ([4]; 5 daily doses, 2-day break): indistinguishable from the carrier-treated mice
- decrease in lymphocytes (blood counts) ([4]; 12-day study): ~25%
- spleen weight decrease ([4]; 12-day study): ~20%
- blood counts, other cell types ([4]; 12-day study, relative to control mice): no changes
- Water Solubility (Water solubility): ≥ 50 mM
- Water Solubility (Water solubility; listed as 165): Soluble at 50 mM
- % inhibition of MAP4K2 (MAP4K2): 69%
- % inhibition of CDK8 (CDK8 [5]): 97.8%
- appearance of palpable tumors ([6]; 5-day pretreatment 25 mg/kg daily i.p.): significantly slower appearance of palpable tumors
- tumor growth (tumor volumes, caliper) ([6]; daily i.p. 40 mg/kg, three days before and after injection): strong and sustained inhibition of tumor growth
- luciferase expression from TOPFLASH promoter (β-catenin activity) [7]: concentration-dependent inhibition
- activity in cell-based CDKI pathway assay ([8]; IPTG-inducible p21): more active than any of the previously developed SNX2-class compounds
- activity in cell-based CDKI pathway assay ([8]; IPTG-inducible p21, listed as Senexin B): potently inhibited
- EC50 ([8]; IPTG-induced p21, CMV-GFP / Hoechst 33342, read-out: Cell-based Assay EC50): 530 nM
